“Also recorded” adds a separate entry of the source.
Legend:
HIV-1 [1] = details: 72 hours, ELISA p24
Description: The activity test consists of putting the cells of an established lymphocyte line, CEM cells, in contact with a supernatant of infected cells containing the infectious virions. The test is carried out in the following manner: The CEM cells, cultured in suspension in RPMI medium supplemented with 10% of foetal calf serum, are infected with a viral supernatant with a multiplicity of infection of 0.5. After 2 hours of infection, the cells are washed twice with RPMI medium in a manner so as to eliminate the residual viral particles. Finally, the cells are replaced in RPMI medium containing the compound according to the invention. The viral load is evaluated after 72 hours of culture. This is quantified in two of the following ways:
1) The quantity of viral protein p24 is determined by an ELISA test.

CEM cells = test: toxicity on CEM cells, MTT biotransformation test; format: cell-based
Description: (§1) The toxicity of the compounds is tested by a biotransformation test of MTT to formazan by cellular mitochondrial dehydrogenases.

[2] = biological target: T1, reverse transcriptase enzyme of the HIV-1 virus (Human immunodeficiency virus type 1 group M subtype B, UniProt P04585); test: reverse transcriptase activity of lysed viral particles on polyrC/oligo(dG); format: biochemical; details: polyrC matrix, oligo (dG) primer
T1 construct: endogenous in cells; host or cells: viral particles concentrated from the supernatant of a CEM cell culture, lysed in non-ionic detergent
Description: The specificity of the compounds according to the invention for integrase is estimated by an activity test on the reverse transcriptase enzyme of the HIV-1 virus. This test is carried out in the following manner: The viral particles of a supernatant of a CEM cell culture (established lymphocyte line) are concentrated by centrifugation at 30,000 RPM. These viral particles are lysed in a non-ionic detergent and their reverse transcriptase activity is tested on a substrate formed from a hybridized oligo (dG) primer on a polyrC matrix. In the presence of radiolabelled nucleotide dG, the transcriptase activity is expressed by the formation of labelled polynucleotide which can be precipitated in trichloroacetic acid. This confirms that a dideoxynucleotide ddG inhibits the formation of acid precipitatable.

EcoRI restriction enzyme = EcoRI restriction enzyme (Escherichia coli, UniProt P00642); test: inhibition of cleavage of linearized pSP65 plasmid by EcoRI; format: biochemical; details: 4 hours, 0.1 units EcoRI
Sequence of EcoRI restriction enzyme (P00642 whole entry): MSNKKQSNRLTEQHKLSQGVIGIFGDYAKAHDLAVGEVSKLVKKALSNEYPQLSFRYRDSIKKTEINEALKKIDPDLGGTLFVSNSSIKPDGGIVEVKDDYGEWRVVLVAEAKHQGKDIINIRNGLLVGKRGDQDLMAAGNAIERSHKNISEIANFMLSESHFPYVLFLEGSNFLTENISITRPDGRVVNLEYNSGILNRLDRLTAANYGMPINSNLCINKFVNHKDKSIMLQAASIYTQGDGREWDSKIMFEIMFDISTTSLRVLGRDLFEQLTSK
Description: The catalytic site of HIV-1 integrase is very close to that of the EcoRI restriction enzyme. The compounds which block both proteins are therefore catalytic inhibitors of integrase.
The linearized plasmid is incubated for 4 hours in the presence of 0.1 units of the EcoRI enzyme. The enzyme activity is monitored by the appearance of the cleavage products on 1.2% agarose gel.

HIV-1 integrase [3] = biological target: T2, HIV-1 integrase (Human immunodeficiency virus type 1 group M subtype B, UniProt P04585); details: three tests: endonucleolytic cleavage, strand transfer, disintegration
Description: 1—The endonucleolytic activity of the protein is tested on a double-strand oligonucleotide of 21 base pairs, radiolabelled at the 5′ end. The activity of the integrase is expressed by elimination of the dinucleotide at the 3′ end.
2—The strand transfer test is carried out with a double-strand oligonucleotide of 21 base pairs mimicking the end of the viral DNA, the 3′ terminal dinucleotide of which has been supressed. The activity of the protein is expressed by the covalent insertion of this oligonucleotide in a homologous oligonucleotide.
3—The disintegration test is carried out with a substrate mimicking the structure of the integrated viral DNA. The quantity of DNA excised by the integrase is measured. This last test only quantifies the catalytic activity of the protein excluding its fixation activity on the DNA.

HIV-1 [4] = test: HIV-1 replication in CEM cells, infectious virus load on Hela β-gal CD4+ cells; format: cell-based; details: read-out: β-gal activity, 50% effectiveness on production of viral particles, 72 hours, HeLa β-gal colorimetric test, global antiviral effect
Description: This is quantified in two of the following ways:

ACH2 cells = test: toxicity on ACH2 cells, MTT biotransformation test; format: cell-based
Description: as §1
(§2) The compounds according to the present invention were tested on the late stages of the replication of HIV-1. The test is as follows: The ACH2 cells which integrated HIV-1 viral DNA were used. […] When the cells are used in the presence of TNF, they express the HIV virus from the integrated provirus. The production of viral particles is detected 24 hours after activation. The viral load in the supernatant is quantified by the ELISA p24 test.

HIV-1 [5] = test: late stages of HIV-1 replication in TNF-activated ACH2 cells, p24 ELISA; format: cell-based; details: 24 hours; for effect on the production of viral particles (in words): ACH2 cells
Description: as §2

HIV-1 integrase [6] = biological target: T2, HIV-1 integrase; test: strand transfer test of HIV-1 integrase; format: biochemical; details: read-out: strand transfer, concentration necessary to block 50% of the activity of HIV-1 integrase
HIV-1 integrase [7] = biological target: T2, HIV-1 integrase; test: disintegration test of HIV-1 integrase; format: biochemical; details: read-out: disintegration, concentration necessary to block 50% of the activity of HIV-1 integrase
HIV-1 integrase [8] = biological target: T2, HIV-1 integrase; test: endonucleolytic cleavage test of HIV-1 integrase (21 bp oligonucleotide); format: biochemical; details: read-out: endonucleolytic cleavage, concentration necessary to block 50% of the activity of HIV-1 integrase

Compound	anti-viral effect, production of viral particles / replication in CEM cells (in words) (HIV-1 [1])	MTT, toxicity by biotransformation (CEM cells)	toxicity according to the MTT test (in words) (CEM cells; up to 100 μM, maximum concentration tested)	reverse transcription inhibition (in words) [2]	cleavage by EcoRI (in words) (EcoRI restriction enzyme)	anti-integrase activity in the tests for in vitro activity (in words) (HIV-1 integrase [3])	EC50 (HIV-1 [4])	MTT, toxicity by biotransformation (ACH2 cells)	effect on the production of viral particles (in words) (HIV-1 [5]; above 50 μM)	effect on the production of viral particles (in words) (HIV-1 [5]; concentrations up to 100 μM)	IC50 (HIV-1 [5]; Human immunodeficiency virus 1, ACH-2, ACH2 cells activated by TNF, effect on the late stages, read-out: p24 test, inhibitory 50% concentration)	IC50 (HIV-1 integrase [6])	IC50 (HIV-1 integrase [7])	IC50 (HIV-1 integrase [8])
O=C([O-])c1ccc2ccc(C=Cc3ccc(O)c(O)c3)nc2c1O.[Na+] [Compound 2, sodium salt of 8-hydroxy-2-[2-[(3,4-dihydroxyphenyl)ethenyl]]7-quinoline-carboxylic acid]	blocks the production of viral particules; also recorded: same anti-viral effect													
O=C(O)c1ccc2ccc(/C=C/c3ccc(O)c(O)c3)nc2c1O [Compound 1, 8-hydroxy-2-[2-[(3,4-dihydroxyphenyl)ethenyl]]7-quinoline carboxylic acid]		>100 µM	devoid of toxicity	no reverse transcription inhibition	strongly inhibited	inhibit the three activites	4000 nM	>100 µM	slight inhibition	No other significant effect	> 100000 nM			
O=C(O)c1ccc2ccc(/C=C/c3cc(O)c(O)c(O)c3)nc2c1O [Compound 3, 8-hydroxy-2-[2-[(3.4,5-trihydroxyphenyl)ethenyl]]7-quinoline carboxylic acid]						inhibit the three activites						310 nM	56 nM	320 nM
